Source: patent publication US20120046357A1, “Benzamide and Napthamide Derivatives Inhibiting Nuclear Factor-Kappa (B) - (NK-kB)” (Profectus Biosciences, Inc., priority 2009, published 2012)

Assays:
[1] = tested on: NF-κB; assay: 293/NFkB-luc reporter cell assay (TNF-α induced luciferase expression); format: cell-based; conditions: 293/NFkB-luc, 293 cells, pNF-κB-luc reporter, 2 h pretreatment, 20 ng/ml TNF-α 18 h
Protocol: (§1) Two reporter cell assays were used to determine the ability of the compound of Example 10 to inhibit NF-κB driven transcription. The first assay was a 293-cell based assay with a stably integrated pNF-κB-luc reporter plasmid containing 3 NF-κB promoter elements. The second assay was a 293-cell based assay with a stably integrated pTRH1-NF-κB-dscGFP reporter containing 4 NF-κB promoter elements. Cells were treated with 0, 0.2, 1, 10, 20 and 40 μM of the compound of Example 10 for 2 hours then were induced with 20 ng/ml TNF-α for 18 hours. Following the induction, luminescence or fluorescence was quantified using a Beckman-Coulter 2300 plate reader. […] These values represent the median value generated from three independent experiments. As a control, 0.5% DMSO treated and untreated cells were compared to verify that the compound of Example 10 had no effect on the expression of luciferase or in the readout of the assay. There was a slight decrease in the output from the assay in the DMSO treated population although it was not statistically significant. As a result of the controls, the decrease in activity in the drug treated samples was compared to the DMSO control sample.

[2] = tested on: NF-κB; assay: NF-κB/293/GFP reporter cell assay (TNF-α induced GFP expression); format: cell-based; conditions: Homo sapiens, HEK293, 293 cells, pTRH1-NF-κB-dscGFP reporter, 2 h pretreatment, 20 ng/ml TNF-α 18 h; read-out: NF-KB/293/GFP EC50
Protocol: as §1

[3] = tested on: IL-6 release from RAW264.7 cells; assay: LPS-stimulated IL-6 release from RAW264.7 cells (ELISA); format: cell-based, mouse; conditions: Mus musculus, RAW264.7, RAW264.7 cells, 2 h pretreatment, 1 μg/mL LPS 20-24 h; read-out: RAW 264.7 IL-6 release EC50
Protocol: RAW 264.7 cells were seeded at 4×10^4 cells per well n complete growth medium in 96 well white TC plates with clear bottoms one day prior to the assay. The next day the cells were washed once and 100 μL fresh growth media was added. Cells were pretreated with 0.5 μL from a 6 point 200× dilution series of the test compounds in DMSO for 2 hours. Following pretreatment with the drugs, the inflammatory response was induced by adding 5 μL of a 20 μg/mL solution of LPS (Sigma). The cells were incubated in the presence of the drugs and 1 μg/mL LPS for another 20-24 hours. Typically after treatment the total DMSO was […] of the culture volume and the final concentrations of the compounds were approximately: 40, 20, 10, 1, 0.2 and 0 μM depending on the MW of each compound. Modified dilution series were prepared as needed to get adequate dose response curves without changing the % DMSO. Samples were run in duplicate or triplicate and included DMSO treated control wells with and without LPS stimulation. Drugs with a known activity such as Parthenolide or DHMEQ were run as experimental controls. After 20-24 hours LPS activation, the media supernatant was collected from the cells and replaced with fresh media. The supernatant samples were cleared by centrifugation at 1,000×g for 5 minutes, transferred to fresh storage plates, and stored frozen at −30° C.
After determining the appropriate supernatant dilutions experimentally, mIL-6 levels in the supernatants were quantified using Quantikine™ mouse IL-6 immunoassay (R&D Systems) according to the manufacturer's protocol. […] diluted in Calibrator Diluent were added to 50 μL of Assay Diluent in microplate wells pre-coated with an anti-mouse IL-6 capture antibody. Controls included a calibrated positive IL-6 control sample, non-specific binding (NSB) wells containing Calibrator Diluent but no IL-6, and a recombinant mouse IL-6 standard dilution series (10-1000 pg/mL). The plates were incubated at room temperature for 2 hours with shaking and then washed 5 times with 400 μL 1× Wash Buffer. […] anti-mouse IL-6 antibody was added to each well to detect IL-6 captured on the plate. The plates were incubated at room temperature for 2 hours and then washed 5 times with 400 μL 1× Wash Buffer. Equal volumes of Color Reagents A and B were mixed and 100 μL of this HRP Substrate Solution was added to each well on the plate. The blue color was allowed to develop for 30 minutes and then the reaction was stopped using 100 μL of Stop Solution yielding a yellow color. Absorbance at 450 nm with a reference wavelength subtracted at 595 nm was recorded using a Becton-Dickinson DTX 880 Multimode Detector.
The concentration of mIL-6 in the unknown samples was determined from a curve-fit of the mIL-6 standard absorbance data and multiplying by the dilution factor. The maximum activity achieved in the absence of the inhibitor (DMSO+LPS treated wells) was arbitrarily given a value of 100%; likewise the minimum activity in the absence of the stimulant (no LPS) was assigned a value of 0%. Inhibition of the amount of mIL-6 cytokine released in the drug treated wells was calculated relative to the maximum activation in the DMSO+LPS treated control wells (ie. % inhibition=100−(drug+LPS treated)/(DMSO+LPS treated)). Dose response curves were used to determine the effective concentration to inhibit 50% of the mIL-6 cytokine released (IC50) by means of a SigmaPlot macro which fits a sigmoidal dose-response curve to the (log 10) μM concentration versus % inhibition. […] This technique yields an objective value for the IC50 provided that 50% inhibition was approached at the concentrations tested. FIG. 5 illustrates the effect of the compound of Example 10 on inhibiting IL-6 release.

[4] = molecular target: T1, p65 (RelA) (Homo sapiens, UniProt Q04206); assay: TransAM NF-κB family DNA binding ELISA, p65; format: biochemical; conditions: binding to NF-κB consensus oligonucleotide
T1 construct: purchased Active Motif
T1 sequence (Q04206 whole entry): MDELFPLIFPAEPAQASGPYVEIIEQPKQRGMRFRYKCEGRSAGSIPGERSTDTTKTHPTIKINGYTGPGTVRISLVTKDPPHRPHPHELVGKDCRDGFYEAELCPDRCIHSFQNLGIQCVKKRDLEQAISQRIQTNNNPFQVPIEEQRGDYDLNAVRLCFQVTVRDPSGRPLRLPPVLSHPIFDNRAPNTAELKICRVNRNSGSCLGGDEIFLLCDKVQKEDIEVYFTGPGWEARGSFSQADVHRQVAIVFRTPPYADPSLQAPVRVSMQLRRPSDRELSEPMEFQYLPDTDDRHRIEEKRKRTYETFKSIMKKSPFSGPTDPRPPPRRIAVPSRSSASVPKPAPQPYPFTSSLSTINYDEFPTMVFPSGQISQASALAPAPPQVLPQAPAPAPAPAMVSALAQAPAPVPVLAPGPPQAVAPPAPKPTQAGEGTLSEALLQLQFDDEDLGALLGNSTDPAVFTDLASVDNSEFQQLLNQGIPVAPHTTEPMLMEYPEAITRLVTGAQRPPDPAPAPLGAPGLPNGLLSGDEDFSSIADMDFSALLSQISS
Protocol: The binding activity of NF-κB heterodimer or homodimer subunits from activated nuclear extracts or purified recombinant NF-κB proteins exposed to the drug compounds was evaluated using the TransAM NF-κB Family binding ELISA (Active Motif). 3-5 μg of nuclear extracts from TNFα activated Hela or Raji cells (Active Motif) or 20 ng of purified recombinant proteins (p65 and p50 from Active Motif, p52 from Santa Cruz) were incubated for 1 hour at room temperature with 20 μL drug compounds diluted in Complete Lysis buffer without DTT. Treated samples were then transferred to 30 μL Complete Binding Buffer (with DTT) in microplate wells pre-coated with the NF-κB consensus oligonucleotide. […] The plate was incubated for 1 hour at room temperature with gentle shaking and then washed 3 times with 200 μL 1× Wash Buffer. NF-κB p65, p50, p52, RelB, or c-Rel subunits bound to the plate were detected with 100 μL of the primary antibody (diluted 1:1000 in 1× Antibody Buffer) specific for that subunit. The plate was incubated for 1 hour at room temperature and then washed 3 times with 200 μL 1× Wash Buffer. Next, 100 μL of a HRP conjugated goat anti-rabbit antibody (diluted 1:1,000 in 1× Antibody Buffer) was added to each well. The plate was incubated for 1 hour at room temperature and then washed 4 times with 200 μL 1× Wash Buffer. 100 μL of room temperature Developing Solution was added to each well. The reaction was allowed to develop for 2-10 minutes until a medium dark blue color developed (depending on the subunit activity in the lot of extract or lot of recombinant protein used) and then the reaction was stopped with 100 μL Stop Solution yielding a yellow color. Absorbance was recorded using a Becton-Dickinson DTX 880 Multimode Detector at 450 nm with a reference wavelength subtracted at 620 nm. FIGS. 2, 3 and 4 illustrate the effect of Example 10 on inhibiting RelA, RelB and c-Rel binding to NF-κB sites.

Row | SMILES | EC50 [1] | EC50 [2] | EC50 [3] | IC50 [4]
1 | O=C(NC1=CC(=O)C2OC2C1=O)c1c(O)ccc2ccccc12 (racemic) [Example 12, (±)-N-(2,5-dioxo-7-oxabicyclo[4.1.0]hept-3-en-3-yl)-2-hydroxy-1-naphthamide] | 2.2 µM | 3.6 µM | 0.14 µM | 9.7 µM
2 | Cc1cc(Br)cc(C(=O)NC2=CC(=O)C3OC3C2O)c1O (racemic) [Example 13, (±)-5-bromo-2-hydroxy-N-(2-hydroxy-5-oxo-7-oxabicyclo[4.1.0]hept-3-en-3-yl)-3-methylbenzamide] | 21 µM | 9.2 µM | 1.7 µM | 8.7 µM
3 | CN(C)c1ccc(C(=O)NC2=CC(=O)C3OC3C2=O)c(O)c1 (racemic) [Example 18, (±)-4-(dimethylamino)-N-(2,5-dioxo-7-oxabicyclo[4.1.0]hept-3-en-3-yl)-2-hydroxybenzamide] | 2.1 µM | 3.1 µM | 0.58 µM | 26 µM
4 | Cc1cc(Br)cc(C(=O)NC2=CC(=O)C3OC3C2=O)c1O (racemic) [Example 14, (±)-5-bromo-N-(2,5-dioxo-7-oxabicyclo[4.1.0]hept-3-en-3-yl)-2-hydroxy-3-methylbenzamide] | 2.9 µM | 3.6 µM | 0.25 µM | 5.3 µM
